The values that follow come from patent publication US3950537A, “Gastrointestinally active thioureas” (Rohm and Haas Company, priority 1975, dated 1976).

Counter-ions that a name gives are not always drawn. A value given as a limit tells only on which side of the number the result lay.

In general, ED50 refers to the midpoint of the dose-response relation.

For assay [1], the system named is gastric secretion. The experiment in a line: Antisecretory test (pyloric ligation, gastric secretion volume). The following applies: for ED50: Rattus norvegicus, orally 1 hour prior to pyloric ligation or subcutaneously immediately after, 5 h after ligation, maximum dosage 10 mg./kg., read-out: Antisecretory Activity ED50 (50% reduction in the volume of gastric secretion); for found to be active in the antisecretory test: rats, pyloric ligation, in words. The assay is classed as in vivo, Wistar rats (adult female). The procedure: Adult female Wistar rats weighing 140 to 160 g. were starved for 24 hours prior to the test. The animals were anaesthetized with ether, shaved on the abdomen, and a small midline incision made. The pylorus was exposed, ligated, and the wound subsequently closed with wound clips. The animals were treated with the test compound administered either orally 1 hour prior to pyloric ligation or subcutaneously immediately after ligation. The test compound was administered in distilled water or 0.5% methyl cellulose. Six animals were used for each treatment. Five hours following the ligation, the animals were sacrificed, the stomachs were carefully removed and opened, and the gastric contents measured for volume and titratable acidity. […] A maximum dosage of 10 mg./kg. was used for the test compounds.

Assay [2] deals with diarrhea. The experiment in a line: Antidiarrheal test (castor oil diarrhea). The assay is classed as in vivo, Swiss-Webster mice (adult male). The following applies: Mus musculus; oral, 1 h before castor oil; diarrhea noted 3 h later; maximum 30 mg./kg.; read-out: Antidiarrheal ED50 (inhibited diarrhea in 50% of the treated mice). As for the experimental part:
In this test adult male Swiss-Webster mice weighing 30 to 40 g. were employed, using 6 mice per treatment. The test compound was administered orally in a dosage series with a maximum of 30 mg./kg. either in water if soluble or else in 0.5% methyl cellulose. One hour after treatment, each animal received a single dose of 0.3 ml. of castor oil, administered orally. The animals were then individually caged and provided food and water.

The test system of assay [3] is charcoal entering the cecum. The experiment in a line: Antimotility test (charcoal entering the cecum). The assay is classed as in vivo, mice (adult male). The following applies: for ED50: Mus musculus, oral, 1 h before charcoal, examined 3.5 h after charcoal, maximum dosage 30 mg./kg., read-out: Antimotility ED50 (prevented the charcoal from entering the cecum in 50% of the treated mice); for found to be active in the antimotility tests: mice, in words.
Procedure: Adult male mice weighing in the range of 20 to 30 g. were starved for 24 hours prior to the test. The animals were then treated orally with the test compound dissolved in water or suspended in methyl cellulose. One hour later, each animal was dosed with 0.2 ml. of a charcoal suspension consisting of 5% activated charcoal suspended in 0.25% methyl cellulose. The animals were sacrificed 3.5 hours after the charcoal administration and their cecums examined for the presence or absence of charcoal. […] A maximum dosage of 30 mg./kg. was used.

Turning to `Cc1ccccc1NC(=S)N(C)C` [AA], the figures for the ED50 in assay [1], in assay [2] and in assay [3] were greater than 10 mg/kg, less than 30 mg/kg and less than 30 mg/kg, respectively.

Turning to `Cc1ccc(NC(=S)N(C)C)c(C)c1` [AB], the figures for the ED50 in assay [1], in assay [2] and in assay [3] were greater than 10 mg/kg, 3.8 mg/kg and 4.4 mg/kg, respectively.

For the molecule `Cc1cccc(C)c1NC(=S)N(C)C` [AC], the values for the ED50 in assay [1] and in assay [3] were greater than 10 mg/kg and less than 30 mg/kg, respectively.

Regarding `Cc1cc(Cl)ccc1NC(=S)N(C)C` [AD], the ED50 was greater than 10 mg/kg in assay [1] and less than 30 mg/kg in assay [3].

Regarding `CNC(=S)Nc1ccc(C)cc1C` [AE], the ED50 is greater than 10 mg/kg in assay [1] and greater than 30 mg/kg in assay [3].

With `CCNC(=S)Nc1ccc(C)cc1C` [AF], the ED50 in assay [1] is greater than 10 mg/kg; in assay [3], greater than 30 mg/kg.

`Cc1ccc(NC(=S)NCCN)c(C)c1` [AG]: the ED50 in assay [1] is greater than 10 mg/kg; in assay [2] it was 10 mg/kg; in assay [3] it was 13 mg/kg.

Consider `Cc1ccc(NC(=S)NCCN(C)C)c(C)c1` [AH], for which the figures for the ED50 in assay [1], in assay [2] and in assay [3] were greater than 10 mg/kg, greater than 30 mg/kg and 20 mg/kg, respectively.

Take `Cc1cccc(C)c1NC(=S)NCCN` [AI]: the results for the ED50 in assay [1], in assay [2] and in assay [3] were greater than 10 mg/kg, 11.5 mg/kg and 15.5 mg/kg, respectively.

As for `Cc1cc(Cl)ccc1NC(=S)NCCN` [AJ], the ED50 in assay [1] was greater than 10 mg/kg; in assay [3], 30 mg/kg.

Consider `Cc1ccc(NC(=S)NCCS)c(C)c1` [AK], for which the ED50 is greater than 10 mg/kg in assay [1], greater than 30 mg/kg in assay [2] and 15 to 30 mg/kg in assay [3].

In the case of `Cc1ccc(NC(=S)N(C)CCO)c(C)c1` [AL], the ED50 was greater than 10 mg/kg in assay [1], greater than 30 mg/kg in assay [2] and greater than 30 mg/kg in assay [3].

For the molecule `Cc1ccc(NC(=S)N(CCO)CCO)c(C)c1` [AM], the figures for the ED50 in assay [1], in assay [2] and in assay [3] were greater than 10 mg/kg, greater than 30 mg/kg and greater than 30 mg/kg, respectively.

Regarding `Cc1ccc(NC(=S)NC(C)CO)c(C)c1` (stereo not shown) [AN], the ED50 in assay [1] was greater than 10 mg/kg; in assay [3] it was greater than 30 mg/kg.

Consider `Cc1ccc(NC(=S)NC(C)(C)CO)c(C)c1` [AO], for which the ED50 in assay [1] is greater than 10 mg/kg; in assay [2], greater than 30 mg/kg; in assay [3], less than 30 mg/kg.

For `Cc1ccc(NC(=S)NCC(C)O)c(C)c1` (stereo not shown) [AP], the ED50 in assay [1] is greater than 10 mg/kg; in assay [2] it was greater than 30 mg/kg; in assay [3], greater than 30 mg/kg.

Turning to `Cc1ccc(NC(=S)NCCCO)c(C)c1` [AQ], the ED50 in assay [1] was greater than 10 mg/kg; in assay [2], greater than 30 mg/kg; in assay [3], greater than 30 mg/kg.

For the molecule `Cc1cccc(C)c1NC(=O)NCCO` [AR], the ED50 is greater than 10 mg/kg in assay [1], greater than 30 mg/kg in assay [2] and greater than 30 mg/kg in assay [3].

Turning to `Cc1ccccc1NC(=S)NCCO` [A], the ED50 in assay [1] was 3 to 10 mg/kg; in assay [2] it was 7.8 mg/kg; in assay [3], 11.5 mg/kg.

Turning to `CCc1ccccc1NC(=S)NCCO` [B], the ED50 in assay [1] is greater than 10 mg/kg; in assay [2], 15 to 30 mg/kg; in assay [3], greater than 15 mg/kg.

Consider `CC(C)c1ccccc1NC(=S)NCCO` [C], for which the ED50 in assay [1] was greater than 10 mg/kg; in assay [2], greater than 30 mg/kg; in assay [3], greater than 30 mg/kg.

As for `Cc1ccc(NC(=S)NCCO)cc1` [D], the ED50 in assay [3] was greater than 30 mg/kg.

For the molecule `CN1CCCN=C1COC(=O)C(O)(c1ccccc1)C1CCCCC1` (stereo not shown) [Daricon, oxyphencyclimine hydrochloride, reference compound], the ED50 was 2.4 mg/kg in assay [1], 50 mg/kg in assay [2] and 3.4 mg/kg in assay [3].

Take `Cc1cccc(NC(=S)NCCO)c1C` [E]: the ED50 worked out at 3 mg/kg in assay [1], 12.5 mg/kg in assay [2] and 5 mg/kg in assay [3].

`Cc1ccc(NC(=S)NCCO)c(C)c1` [F]: the figures for the ED50 in assay [1], in assay [2] and in assay [3] were 0.5 to 1 mg/kg, 10.5 mg/kg and 8.6 mg/kg, respectively.

Consider `Cc1ccc(C)c(NC(=S)NCCO)c1` [G], for which the ED50 is greater than 10 mg/kg in assay [1], greater than 30 mg/kg in assay [2] and greater than 30 mg/kg in assay [3].

`Cc1cccc(C)c1NC(=S)NCCO` [H]: the results for the ED50 in assay [1], in assay [2] and in assay [3] were 0.5 to 1 mg/kg, 4.3 mg/kg and 2.4 mg/kg, respectively.

Take `Cc1ccc(NC(=S)NCCO)cc1C` [I]: the ED50 in assay [1] is greater than 10 mg/kg; in assay [2] it was greater than 30 mg/kg; in assay [3], greater than 30 mg/kg.

On to `Cc1cc(C)cc(NC(=S)NCCO)c1` [J], for which the ED50 was greater than 10 mg/kg in assay [1] and greater than 30 mg/kg in assay [3].

With `Cc1c(Cl)cccc1NC(=S)NCCO` [K], the values for the ED50 in assay [1], in assay [2] and in assay [3] were greater than 10 mg/kg, less than 30 mg/kg and 7.2 mg/kg, respectively.

As for `Cc1cc(Cl)ccc1NC(=S)NCCO` [L], the figures for the ED50 in assay [1], in assay [2] and in assay [3] were 1 to 3 mg/kg, less than 30 mg/kg and 15 to 30 mg/kg, respectively.

For `CCOC(=O)C1(c2ccccc2)CCN(CCC(C#N)(c2ccccc2)c2ccccc2)CC1` [Lomotil, diphenoxylate hydrochloride, reference compound], the ED50 in assay [2] worked out at 9.9 mg/kg; in assay [3], 2 mg/kg.

For the molecule `Cc1ccc(Cl)cc1NC(=S)NCCO` [M], the ED50 in assay [1] was greater than 10 mg/kg; in assay [2], 15 to 30 mg/kg; in assay [3] it was 7.4 mg/kg.

As for `Cc1cccc(Cl)c1NC(=S)NCCO` [N], the ED50 was greater than 10 mg/kg in assay [1] and less than 30 mg/kg in assay [3].

For `Cc1cc(Br)ccc1NC(=S)NCCO` [O], the results for the ED50 in assay [1], in assay [2] and in assay [3] were less than 10 mg/kg, greater than 30 mg/kg and 18.5 mg/kg, respectively.

Take `Cc1ccccc1NC(=S)NCCO` [Preparation A, 1-(2-methylphenyl)-3-(2-hydroxyethyl)thiourea]: the “found to be active in the antisecretory test” value in assay [1] is reported as “active”. For the same molecule, in assay [3], the “found to be active in the antimotility tests” value was “active”.

Turning to `Cc1ccccc1NC(=S)N(C)C` [Preparation AA], in assay [3], the “found to be active in the antimotility tests” value is given as “active”.

In the case of `Cc1ccc(NC(=S)N(C)C)c(C)c1` [Preparation AB], in assay [3], the “found to be active in the antimotility tests” value is listed as “active”.

With `Cc1cccc(C)c1NC(=S)N(C)C` [Preparation AC], the “found to be active in the antimotility tests” value in assay [3] is “active”.

With `Cc1cc(Cl)ccc1NC(=S)N(C)C` [Preparation AD, 1-(2-methyl-4-chlorophenyl)-3,3-dimethylthiourea], in assay [3], the “found to be active in the antimotility tests” value is given as “active”.

As for `Cc1ccc(NC(=S)NCCN)c(C)c1` [Preparation AG], in assay [3], the “found to be active in the antimotility tests” value is “active”.

As for `Cc1ccc(NC(=S)NCCN(C)C)c(C)c1` [Preparation AH, 1-(2,4-dimethylphenyl)-3-(2-dimethylaminoethyl)-thiourea], the “found to be active in the antimotility tests” value in assay [3] is given as “active”.

For `Cc1cccc(C)c1NC(=S)NCCN` [Preparation AI], the “found to be active in the antimotility tests” value in assay [3] is “active”.

`Cc1cc(Cl)ccc1NC(=S)NCCN` [Preparation AJ]: in assay [3], the “found to be active in the antimotility tests” value was “active”.

With `CCc1ccccc1NC(=S)NCCO` [Preparation B], the “found to be active in the antimotility tests” value in assay [3] was “active”.

As for `Cc1cccc(NC(=S)NCCO)c1C` [Preparation E], in assay [1], the “found to be active in the antisecretory test” value is reported as “active”. Moreover, the “found to be active in the antimotility tests” value in assay [3] is given as “active”.

Consider `Cc1ccc(NC(=S)NCCO)c(C)c1` [Preparation F, 1-(2,4-dimethylphenyl)-3-(2-hydroxyethyl)-thiourea], for which the “found to be active in the antisecretory test” value in assay [1] is “active”. Also, in assay [3], the “found to be active in the antimotility tests” value is on record as “active”.

For `Cc1cccc(C)c1NC(=S)NCCO` [Preparation H, 1-(2,6-dimethylphenyl)-3-(2-hydroxyethyl)thiourea], the “found to be active in the antisecretory test” value in assay [1] is reported as “active”. Moreover, in assay [3], the “found to be active in the antimotility tests” value is given as “active”.

Take `Cc1c(Cl)cccc1NC(=S)NCCO` [Preparation K]: the “found to be active in the antimotility tests” value in assay [3] is recorded as “active”.

On to `Cc1cc(Cl)ccc1NC(=S)NCCO` [Preparation L], for which the “found to be active in the antisecretory test” value in assay [1] is “active”. In addition, in assay [3], the “found to be active in the antimotility tests” value is “active”.

With `Cc1ccc(Cl)cc1NC(=S)NCCO` [Preparation M], the “found to be active in the antimotility tests” value in assay [3] is on record as “active”.

With `Cc1cccc(Cl)c1NC(=S)NCCO` [Preparation N], in assay [3], the “found to be active in the antimotility tests” value is “active”.

As for `Cc1cc(Br)ccc1NC(=S)NCCO` [Preparation O], the “found to be active in the antimotility tests” value in assay [3] is “active”.

With `COc1ccc(NC(=S)NCCO)c(C)c1` [Preparation R], the “found to be active in the antimotility tests” value in assay [3] is “active”.

Consider `Cc1cc(C)c(NC(=S)NCCO)c(C)c1` [Preparation S], for which the “found to be active in the antisecretory test” value in assay [1] was “active”. The “found to be active in the antimotility tests” value in assay [3] was “active”.

In the case of `OCCNC(=S)Nc1cccc2ccccc12` [Preparation T], the “found to be active in the antimotility tests” value in assay [3] is “active”.

With `OCCNC(=S)Nc1cccc2ccccc12` [T], the ED50 in assay [2] was 15 to 30 mg/kg; in assay [3] it was 7 mg/kg.

With `CN1[C@@H]2CC[C@H]1C[C@@H](OC(=O)C(CO)c1ccccc1)C2` (stereo partly shown) [atropine, reference compound], the values for the ED50 in assay [2] and in assay [3] were greater than 40 mg/kg and 9.8 mg/kg, respectively.

For `COc1ccc2c3c1O[C@H]1[C@@H](O)C=C[C@H]4[C@@H](C2)N(C)CC[C@@]341` [codeine phosphate, reference compound], the values for the ED50 in assay [2] and in assay [3] were 35 mg/kg and 29 mg/kg, respectively.
